Measured values: patent US7563813B2, “Iminothiazolidinone derivatives as SFRP-1 antagonists” (Wyeth, priority 2005, dated 2009)

Target: T1, hSFRP-1 (Homo sapiens, UniProt Q8N474)
T1 construct: expressed in transfected cells; host or cells: U2OS osteosarcoma cells (ATCC, HTB 96), transient co-transfection with Wnt 3, Wnt3A or Wnt 1, 16x TCF-tk-Luciferase reporter and CMV-beta-gal
T1 sequence (Q8N474 32-314): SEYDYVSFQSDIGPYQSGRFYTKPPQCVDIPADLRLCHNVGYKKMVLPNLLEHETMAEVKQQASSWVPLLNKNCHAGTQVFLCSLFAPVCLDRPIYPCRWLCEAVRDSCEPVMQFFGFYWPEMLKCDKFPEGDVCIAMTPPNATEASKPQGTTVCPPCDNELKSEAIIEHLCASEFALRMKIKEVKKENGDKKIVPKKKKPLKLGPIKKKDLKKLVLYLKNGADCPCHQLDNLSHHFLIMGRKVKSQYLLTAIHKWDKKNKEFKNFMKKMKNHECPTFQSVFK
Experiment: Cell-Based Assay for In Vitro Measurement of SFRP-1/SARP2 Antagonist Activity (U2OS cells, 16x TCF-tk-Luciferase reporter, Wnt + hSFRP-1 co-transfection)
Conditions: initial single dose screening at 10 μM; for fold induction at 10 µM: luciferase reporter activity, fold induction over SFRP-1 control; for Ratio: ratio not defined
Procedure: Cell-Based Assay for In Vitro Measurement of SFRP-1/SARP2 Antagonist Activity
The following cell-based assay can be used to identify inhibitors of SFRP-1.
The osteosarcoma cell line, U2OS (ATCC, HTB 96), was passaged twice a week with growth medium (McCoy's SA medium containing 10% (v/v) fetal calf serum, 2 mM GlutaMAX-1, and 1% (v/v) Penicillin-Streptomycin). The cells were maintained in vented flasks at 37° C. inside a 5% CO2/95% humidified air incubator. One day prior to transfection, the cells were plated with growth medium at 25,000 cells/well into 96-well plates and incubated at 37° C. overnight.
The growth medium was removed, and the cells were washed once with OPTIMEM I (Gibco-BRL) medium (100 μl/well) to remove the serum and antibiotics. The wash medium was removed, and the cells were re-fed with OPTI-MEM I medium (100 μl/well). For each well of cells to be transfected, the following DNA's were diluted together in 25 μl OPTI-MEM I medium: 0.1 μg 16× TCF-tk-Luciferase reporter, 0.02 μg Wnt 3, Wnt3A, Wnt 1 or empty vector (Upstate Biotechnology), 0.075 μg hSFRP-1 or empty vector (pcDNA3.1, Invitrogen), and 0.025 μg CMV-®gal (Clonetech). For each well of cells to be transfected, 1 μl of Lipofectamine 2000 reagent (Invitrogen) was diluted in 25 μl OPTI-MEM I medium and incubated at room temperature for 5 minutes. The diluted DNA's were then combined with the diluted Lipofectamine 2000 (LF2000), and the mixture was incubated at room temperature for 20 minutes. Fifty μl of the DNA-LF 2000 mixture was added to each well, and the plate(s) were incubated at 37° C. in a 5% CO2/95% humidified air incubator for 4 hours. The cells were washed once with 150 μl/well of experimental medium (phenol red-free RPMI Medium 1640 containing 2% fetal bovine serum, 2 mM GlutaMAX-1, and 1% Penicillin-Streptomycin). Finally, the cells were treated overnight at 37° C. with 200 μl/well of experimental medium containing either vehicle (typically DMSO) or diluted compound in replicates of 8 wells/compound.
Initial single dose screening of test compounds was done at 10 μM.
Dose-response experiments were initially performed with the compounds in log increases from 1-10,000 nM. From these dose-response curves, EC50 values were generated.
After treatment, the cells were washed twice with 150 μl/well of PBS without calcium or magnesium and were lysed with 50 μl/well of 1× cell culture lysis reagent (Promega Corporation) on a shaker at room temperature for 30 minutes. Thirty μl aliquots of the cell lysates were transferred to 96-well luminometer plates, and luciferase activity was measured in a MicroLumat PLUS luminometer (EG&G Berthold), or a Victor (PerkinElmer Life Sciences) using […] of luciferase substrate (Promega Corporation). Following the injection of substrate, luciferase activity was measured for 10 seconds after a 1.6 second delay. Similarly, 10 μl aliquots of the cell lysates were transferred to separate 96-well luminometer plates, and 50 μl of Galacton chemiluminescent substrate (Tropix) was added to each well. The plates were covered and incubated on a rotary shaker at room temperature for one hour. ®gal activity was measured in a MicroLumat PLUS luminometer or Victor using 100 μl/well of Light Emission Accelerator (Tropix). Following the injection of the accelerator, ®gal activity was measured for 10 seconds after a 1.6 second delay. The luciferase and ®gal activity data were transferred from the luminometer to a PC and analyzed using the SAS/Excel program. After the luciferase activity was normalized to ®gal, the SAS/Excel program was used to determine the mean and standard deviation of each treatment, to analyze the data for statistical significance, and to determine EC50 values.
As an alternative to co-transfection in a 96 well plate, the U2OS cells were transfected in T225 flasks and the transfected cells were frozen. The frozen cells were thawed and plated on a 96 well plate and the assay was carried out as detailed above. […]

Row | SMILES | fold induction at 10 µM | Ratio
1 | CCOC(=O)c1c(-c2ccco2)csc1NC(=O)CC1SC(=N)NC1=O (stereo not drawn) [Example 46, ethyl 4-(2-furyl)-2-{[(2-imino-4-oxo-1,3-thiazolidin-5-yl)acetyl]amino}thiophene-3-carboxylate] | 1.1 | 1.0
2 | CCOC(=O)c1c(-c2ccc(F)cc2)csc1NC(=O)CC1SC(=N)NC1=O (stereo not drawn) [Example 47, ethyl 4-(4-fluorophenyl)-2-{[(2-imino-4-oxo-1,3-thiazolidin-5-yl)acetyl]amino}thiophene-3-carboxylate] | 1.1 | 1.0
3 | CCOC(=O)c1c(NC(=O)CC2SC(=N)NC2=O)sc(C)c1-c1ccccc1 (stereo not drawn) [Example 48, ethyl 2-{[(2-imino-4-oxo-1,3-thiazolidin-5-yl)acetyl]amino}-5-methyl-4-phenylthiophene-3-carboxylate] | 1.6 | 1.8
4 | N#Cc1c(NC(=O)CC2SC(=N)NC2=O)sc2c1CCCC2 (stereo not drawn) [Example 49, N-(3-cyano-4,5,6,7-tetrahydro-1-benzothien-2-yl)-2-(2-imino-4-oxo-1,3-thiazolidin-5-yl)acetamide] | 1.6 | 1.2
5 | COC(=O)c1ccccc1NC(=O)CC1SC(=N)NC1=O (stereo not drawn) [Example 50, methyl 2-{[(2-imino-4-oxo-1,3-thiazolidin-5-yl)acetyl]amino}benzoate] | 1.1 | 1.0
6 | CCOC(=O)c1ccccc1NC(=O)CC1SC(=N)NC1=O (stereo not drawn) [Example 51, ethyl 2-{[(2-imino-4-oxo-1,3-thiazolidin-5-yl)acetyl]amino}benzoate] | 1.1 | 1.1
7 | COC(=O)c1cc(Cl)ccc1NC(=O)CC1SC(=N)NC1=O (stereo not drawn) [Example 52, methyl 5-chloro-2-{[(2-imino-4-oxo-1,3-thiazolidin-5-yl)acetyl]amino}benzoate] | 1.1 | 1.1
8 | COC(=O)c1cc(OC)c(OC)cc1NC(=O)CC1SC(=N)NC1=O (stereo not drawn) [Example 53, methyl 2-{[(2-imino-4-oxo-1,3-thiazolidin-5-yl)acetyl]amino}-4,5-dimethoxybenzoate] | 1 | 1.0
9 | CCOC(=O)c1c(NC(=O)CC2SC(=N)NC2=O)sc(Br)c1C (stereo not drawn) [Example 54, Ethyl 5-bromo-2-{[(2-imino-4-oxo-1,3-thiazolidin-5-yl)acetyl]amino}-4-methylthiophene-3-carboxylate] | 2.6 | 2.6
10 | CC(C)(C)OC(=O)c1cc(-c2ccccc2)sc1NC(=O)CC1SC(=N)NC1=O (stereo not drawn) [Example 55, tert-butyl 2-{[(2-imino-4-oxo-1,3-thiazolidin-5-yl)acetyl]amino}-5-phenylthiophene-3-carboxylate] | 1.2 | 0.9
11 | COC(=O)c1cc(-c2ccccc2)sc1NC(=O)CC1SC(=N)NC1=O (stereo not drawn) [Example 56, methyl 2-{[(2-imino-4-oxo-1,3-thiazolidin-5-yl)acetyl]amino}-5-phenylthiophene-3-carboxylate] | 0.9 | 0.9
12 | COC(=O)c1cc(-c2ccc(Cl)cc2)sc1NC(=O)CC1SC(=N)NC1=O (stereo not drawn) [Example 57, methyl 5-(4-chlorophenyl)-2-{[(2-imino-4-oxo-1,3-thiazolidin-5-yl)acetyl]amino}thiophene-3-carboxylate] | 0.9 | 0.8
13 | CCOC(=O)c1c(NC(=O)CC2SC(=N)NC2=O)sc(-c2ccccc2)c1C (stereo not drawn) [Example 58, ethyl 2-{[(2-imino-4-oxo-1,3-thiazolidin-5-yl)acetyl]amino}-4-methyl-5-phenylthiophene-3-carboxylate] | 0.7 | 0.7
14 | CCOC(=O)c1c(NC(=O)CC2SC(=N)NC2=O)sc(Br)c1CBr (stereo not drawn) [Example 59, Ethyl 5-bromo-4-(bromomethyl)-2-{[(2-imino-4-oxo-1,3-thiazolidin-5-yl)acetyl]amino}thiophene-3-carboxylate] | 1.1 | 1.4
15 | CCOC(=O)c1c(NC(=O)CC2SC(=N)NC2=O)sc(Br)c1CNc1ccccc1 (stereo not drawn) [Example 60, Ethyl 4-(anilinomethyl)-5-bromo-2-{[(2-imino-4-oxo-1,3-thiazolidin-5-yl)acetyl]amino}thiophene-3-carboxylate] | 2.7 | 2.4
16 | CCOC(=O)c1c(NC(=O)CC2SC(=N)NC2=O)sc(Br)c1CN(C)c1ccc(Cl)cc1 (stereo not drawn) [Example 61, ethyl 5-bromo-4-{[(4-chlorophenyl)(methyl)amino]methyl}-2-{[(2-imino-4-oxo-1,3-thiazolidin-5-yl)acetyl]amino}thiophene-3-carboxylate] | 0.7 | 1.0
17 | CCOC(=O)c1c(NC(=O)CC2SC(=N)NC2=O)sc(Br)c1CNc1ccc(F)cc1 (stereo not drawn) [Example 62, ethyl 5-bromo-4-{[(4-fluorophenyl)amino]methyl}-2-{[(2-imino-4-oxo-1,3-thiazolidin-5-yl)acetyl]amino}thiophene-3-carboxylate] | 2 | 2.2
18 | CCOC(=O)c1c(NC(=O)CC2SC(=N)NC2=O)sc(Br)c1CNC1CCCC1 (stereo not drawn) [Example 63, ethyl 5-bromo-4-[(cyclopentylamino)methyl]-2-{[(2-imino-4-oxo-1,3-thiazolidin-5-yl)acetyl]amino}thiophene-3-carboxylate] | 1.5 | 1.1
